A short description of the data set: TIMS collisional cross section (CCS, N2) of the lipid ion; higher = larger ion cross section. The settings on record: ionization mode: negative, one isomer drawn. The procedure:
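Lipid extracts of human plasma (NIST SRM 1950), mouse liver or HeLa cells were separated by nanoflow C18 LC (30 min gradient) and analysed by TIMS-PASEF on a timsTOF Pro. Ion mobility was calibrated with the Agilent tuning mix (negative mode ions) and converted to collisional cross sections (Mason–Schamp, N2).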

± gives the standard deviation of the averaged measurements.
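Further: lipids from MTBE extraction, five replicate injections per sample, 100 ms TIMS ramp spanning 0.6–1.95 Vs/cm², lipid identity assigned from PASEF MS/MS spectra.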

For the compound `CCCCC/C=C\C/C=C\C/C=C\C/C=C\CCCC(=O)OC[C@H](COP(=O)(O)OCCN)OC(=O)CCCCCCCCCCCCC` [PE 20:4_14:0], where the note is “sample type: Mouse Liver, ion (formula + adduct): [C39H70NO8P-H] 1-”, the “TIMS collisional cross section” value is listed as 263.7 Å². Regarding `CC/C=C\C/C=C\C/C=C\C/C=C\CCCCCCC(=O)O[C@H](COCCCCCCCCCC/C=C\CCCCCCCC)COP(=O)([O-])OCC[N+](C)(C)C` [PC O- 20:1@_20:4], the “TIMS collisional cross section” value (sample type: Human plasma, ion (formula + adduct): [C48H88NO7P+HCOO] 1-) came to 302.3 Å². Regarding `CCCCC/C=C\C/C=C\C/C=C\C/C=C\C/C=C\CCC(=O)OC[C@@H](O)COP(=O)(O)OCCN` [LPE 22:5_0:0], the “TIMS collisional cross section” value is, setting by setting: (sample type: Human plasma, ion (formula + adduct): [C27H46NO7P-H] 1-) 222.18 ± 0.25 Å²; (sample type: Mouse Liver, ion (formula + adduct): [C27H46NO7P-H] 1-) 222.05 ± 0.35 Å². `CC/C=C\C/C=C\C/C=C\C/C=C\C/C=C\C/C=C\CCC(=O)OC[C@H](COP(=O)(O)OCCN)OC(=O)CCCCCCC/C=C\CCCCCCCC` [PE 22:6@_18:1]: the “TIMS collisional cross section” value (sample type: Human plasma, ion (formula + adduct): [C45H76NO8P-H] 1-) is recorded as 278.4 Å². Turning to `CCCCC/C=C\C/C=C\C/C=C\C/C=C\CCCC(=O)O[C@H](COC(=O)CCCCCCCCCCCCCCCCC)COP(=O)(O)OCCN` [PE 18:0_20:4], the “TIMS collisional cross section” value came out at 276.8 Å² (sample type: Human plasma, ion (formula + adduct): [C43H78NO8P-H] 1-) and 276.57 ± 0.29 Å² (sample type: Mouse Liver, ion (formula + adduct): [C43H78NO8P-H] 1-). For the compound `CCCCC/C=C\C/C=C\C/C=C\C/C=C\CCCC(=O)O[C@H](COC(=O)CCCCCCC/C=C\CCCCCCCC)COP(=O)([O-])OCC[N+](C)(C)C` [PC 18:1_20:4], the “TIMS collisional cross section” value is on record as 298.3 Å² (sample type: Human plasma, ion (formula + adduct): [C46H82NO8P+HCOO] 1-) and 297.7 Å² (sample type: Mouse Liver, ion (formula + adduct): [C46H82NO8P+HCOO] 1-). For `CCCCC/C=C\C/C=C\C/C=C\C/C=C\CCCCCC(=O)O[C@H](COC(=O)CCCCCCC/C=C\C/C=C\CCCCC)COP(=O)([O-])OCC[N+](C)(C)C` [PC 18:2_22:4@], the “TIMS collisional cross section” value (sample type: Human plasma, ion (formula + adduct): [C48H84NO8P-CH3] 1-) turned out to be 303.8 Å².

For the compound `CCCCCCCCCCCCCC(=O)OC[C@@H](O)COP(=O)([O-])OCC[N+](C)(C)C` [LPC 14:0_0:0], the “TIMS collisional cross section” value is, setting by setting: (sample type: Human plasma, ion (formula + adduct): [C22H46NO7P+HCOO] 1-) 231.1 ± 0.42 Å²; (sample type: Human plasma, ion (formula + adduct): [C22H46NO7P-CH3] 1-) 219.7 Å²; (sample type: Mouse Liver, ion (formula + adduct): [C22H46NO7P+HCOO] 1-) 231.3 Å². Take `CCCCC/C=C\C/C=C\CCCCCCCC(=O)O[C@H](COC(=O)CCCCCCCCCCCCCCC)COP(=O)(O)OC[C@@H](O)CO` [PG 16:0_18:2]: the “TIMS collisional cross section” value (sample type: Mouse Liver, ion (formula + adduct): [C40H75O10P-H] 1-) is 273.4 Å². As for `CC/C=C\C/C=C\C/C=C\C/C=C\C/C=C\CCCC(=O)OC[C@H](COP(=O)(O)OCCN)OC(=O)CCCCCCCCCCCCCCCCC` [PE 20:5@_18:0], the “TIMS collisional cross section” value (sample type: Human plasma, ion (formula + adduct): [C43H76NO8P-H] 1-) is recorded as 276.2 Å². Regarding `CCCCC/C=C\C/C=C\CCCCCCCC(=O)O[C@H](COC(=O)CCCCCCC/C=C\CCCCCCCC)COP(=O)(O)OCCN` [PE 18:1_18:2], for the setting “sample type: Human plasma, ion (formula + adduct): [C41H76NO8P-H] 1-”, the “TIMS collisional cross section” value was found to be 272 Å².

With `CCCCC/C=C\C/C=C\C/C=C\C/C=C\CCCC(=O)OC[C@H](COP(=O)(O)OCCN)OC(=O)CCCCCCC/C=C\C/C=C\CCCCC` [PE 20:4_18:2@], the “TIMS collisional cross section” value (sample type: Human plasma, ion (formula + adduct): [C43H74NO8P-H] 1-) is 275.6 ± 3.2 Å². With `CCCCC/C=C\C/C=C\C/C=C\C/C=C\CCCC(=O)O[C@H](COC(=O)CCCCCCC/C=C\CCCCCCC)COP(=O)(O)OCCN` [PE 17:1_20:4], for the setting “sample type: Mouse Liver, ion (formula + adduct): [C42H74NO8P-H] 1-”, the “TIMS collisional cross section” value is recorded as 271.6 Å². For the compound `CCCCC/C=C\C/C=C\C/C=C\C/C=C\CCCC(=O)OC[C@H](COP(=O)(O)OC[C@H](N)C(=O)O)OC(=O)CCC/C=C\C/C=C\C/C=C\C/C=C\CCCCC` [PS 20:4_20:4], the “TIMS collisional cross section” value (sample type: Mouse Liver, ion (formula + adduct): [C46H74NO10P-H] 1-) came out at 287.4 Å². As to `CCCCCCCCCC/C=C\CCCCCCCC(=O)O[C@H](COCCCCCCCCCCCCCCCC)COP(=O)([O-])OCC[N+](C)(C)C` [PC O- 16:0@_20:1], the “TIMS collisional cross section” value (sample type: Mouse Liver, ion (formula + adduct): [C44H88NO7P-CH3] 1-) came to 279.7 Å². Turning to `CC/C=C\C/C=C\C/C=C\C/C=C\C/C=C\C/C=C\CCC(=O)OC(COC(=O)CCCCCCCCCCCCCCCCC)COP(=O)(O)OCCN` (stereo not given) [PE 18:0@_22:6], under “sample type: Human plasma, ion (formula + adduct): [C45H78NO8P+AcO] 1-”, the “TIMS collisional cross section” value was found to be 297.5 Å². Regarding `C=CCCC(=O)O[C@H](COC(=O)CCCCCCCCCCCCCCC)COP(=O)([O-])OCC[N+](C)(C)C` [PC 16:0_5:1@], the “TIMS collisional cross section” value (sample type: Mouse Liver, ion (formula + adduct): [C29H56NO8P+HCOO] 1-) turned out to be 247.5 Å².

For the compound `CCCCC/C=C\C/C=C\C/C=C\CCCCCCC(=O)OC[C@H](COP(=O)(O)OCCN)OC(=O)CCCCCCCCCCCCCCCCC` [PE 20:3_18:0], where the note is “sample type: Mouse Liver, ion (formula + adduct): [C43H80NO8P-H] 1-”, the “TIMS collisional cross section” value is reported as 277.3 Å². For `CC/C=C\C/C=C\C/C=C\C/C=C\C/C=C\CCCC(=O)OCC(O)COP(=O)(O)O` (stereo not given) [LPA 20:5], where the note is “sample type: Human plasma, ion (formula + adduct): [C23H37O7P-H] 1-”, the “TIMS collisional cross section” value is listed as 206.5 Å². As to `CC/C=C\C/C=C\CC(O)/C=C/C=C\C/C=C\C/C=C\CCC(=O)O[C@H](COC(=O)CCCCCCCCCCCCCCC)COP(=O)(O)OCCN` (stereo not given in full) [Oxidized PE 16:0_22:6@], the “TIMS collisional cross section” value (sample type: Mouse Liver, ion (formula + adduct): [C43H74NO9P-H] 1-) turned out to be 290.6 Å².

Consider `CCCCCCCCCCCCCCCC(=O)O[C@H](COC(=O)CCCCCCCCCCCCCC)COP(=O)([O-])OCC[N+](C)(C)C` [PC 15:0_16:0], for which the “TIMS collisional cross section” value (sample type: Human plasma, ion (formula + adduct): [C39H78NO8P-H] 1-) is listed as 269.8 Å². Turning to `CCCCC/C=C\C/C=C\CCCC/C=C\CCCC(=O)O[C@H](COC(=O)CCCCCCCCCCCCCCCCC)COP(=O)([O-])OCC[N+](C)(C)C` [PC 18:0_20:3], the “TIMS collisional cross section” value by setting is: (sample type: Human plasma, ion (formula + adduct): [C46H86NO8P+HCOO] 1-) 300.6 Å²; (sample type: Mouse Liver, ion (formula + adduct): [C46H86NO8P+HCOO] 1-) 300 Å². Consider `CC/C=C\C/C=C\C/C=C\C/C=C\C/C=C\CCCC(=O)O[C@H](COC(=O)CCCCCCC/C=C\CCCCCC)COP(=O)(O)OCCN` [PE 16:1_20:5], for which, for the setting “sample type: Mouse Liver, ion (formula + adduct): [C41H70NO8P-H] 1-”, the “TIMS collisional cross section” value was found to be 267.1 Å². For `CCCCC/C=C\C/C=C\CCCCCCCC(=O)O[C@H](CO/C=C\CCCCCCCCCCCCCCCCCC)COP(=O)(O)OCCN` [PE P- 20:0@_18:2], the “TIMS collisional cross section” value (sample type: Human plasma, ion (formula + adduct): [C43H82NO7P-H] 1-) was found to be 278.6 Å². Regarding `CCCCC/C=C\C/C=C\CCCCCCCC(=O)O[C@H](COC(=O)CCCCCCCCCCCC)COP(=O)([O-])OCC[N+](C)(C)C` [PC 13:0@_18:2], the “TIMS collisional cross section” value (sample type: Mouse Liver, ion (formula + adduct): [C39H74NO8P-H] 1-) is recorded as 266.3 Å². As to `CCCCC/C=C\C/C=C\CCCCCCCCCC(=O)OC[C@@H](O)COP(=O)([O-])OCC[N+](C)(C)C` [LPC 20:2_0:0], the “TIMS collisional cross section” value is, setting by setting: (sample type: Human plasma, ion (formula + adduct): [C28H54NO7P+HCOO] 1-) 246.6 Å²; (sample type: Mouse Liver, ion (formula + adduct): [C28H54NO7P+HCOO] 1-) 245.7 ± 0.42 Å². On to `CCCCC/C=C\C/C=C\CCCCCCCC(=O)O[C@H](COCCCCCCCC/C=C\CCCCCC)COP(=O)([O-])OCC[N+](C)(C)C` [PC O- 16:1@_18:2], for which the “TIMS collisional cross section” value reads like this: (sample type: Human plasma, ion (formula + adduct): [C42H80NO7P-CH3] 1-) 272.4 Å²; (sample type: Mouse Liver, ion (formula + adduct): [C42H80NO7P-CH3] 1-) 272.4 Å². For the compound `CC/C=C\C/C=C\C/C=C\C/C=C\C/C=C\C/C=C\CCC(=O)O[C@H](COC(=O)CCCCCCC/C=C\C/C=C\CCCCC)COP(=O)([O-])OCC[N+](C)(C)C` [PC 18:2_22:6], the “TIMS collisional cross section” value (sample type: Human plasma, ion (formula + adduct): [C48H80NO8P+HCOO] 1-) stood at 298.8 Å² and the “TIMS collisional cross section” value (sample type: Mouse Liver, ion (formula + adduct): [C48H80NO8P+HCOO] 1-) was found to be 298.8 Å². For `CCCCCCCCCCCCCCCC(=O)OC[C@H](COP(=O)([O-])OCC[N+](C)(C)C)OC(=O)CCCC=O` [Oxidized PC 16:0_5:0], the “TIMS collisional cross section” value by setting is: (sample type: Human plasma, ion (formula + adduct): [C29H56NO9P+HCOO] 1-) 255.5 Å²; (sample type: Mouse Liver, ion (formula + adduct): [C29H56NO9P+AcO] 1-) 258.4 Å². Regarding `CCCCCCCC/C=C\CCCCCCCC(=O)OCC(COP(=O)(O)OC1C(O)C(O)C(O)C(O)C1O)OC(=O)CCCCCCC/C=C\CCCCCCCCC` (stereo not given) [PI 18:1_19:1], where the note is “sample type: Human plasma, ion (formula + adduct): [C46H85O13P-CH3] 1-”, the “TIMS collisional cross section” value came out at 293.6 Å².

The values are drawn from the supplement of paper PMC6965134.
